Reference: patent publication US9499535B2, “Kinase inhibitors” (ORIGENIS GMBH, priority 2011, dated 2016)

Columns and labels:
LRRK2 = LRRK2 (Homo sapiens, UniProt Q5S007); assay: LRRK2 assay (LanthaScreen Eu Kinase Binding Assay); settings: 5 nM LRRK2, 10 nM tracer 236, RT 1 h; read-out: LRRK2 Activites: IC50
Method in brief: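 Kinase binding was detected by europium anti-tag antibody FRET with a competing tracer, so inhibitor binding lowers the FRET signal. IC50 came from a variable-slope sigmoidal fit of emission ratio against inhibitor concentration.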

MYLK = MYLK (Homo sapiens, UniProt Q15746); assay: MYLK assay (LanthaScreen Eu Kinase Binding Assay); settings: 5 nM MYLK, 30 nM tracer 236, RT 1 h; read-out: MYLK Activites: IC50
Method in brief: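 TR-FRET tracer-displacement binding: 5 nM MYLK with 2 nM Eu-anti-GST antibody and 30 nM tracer 236 in kinase buffer A, 1 h at RT. The 665/615 nm emission ratio was plotted against inhibitor concentration; IC50 from variable-slope sigmoidal fit.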

SYK kinase = molecular target: T1, SYK kinase (Homo sapiens, UniProt P43405); assay: SYK assay (OMNIA Kinase Assay, Invitrogen); assay type: biochemical; settings: apparent Ki calculated from the IC50 using the Cheng-Prusoff equation; 1 mM ATP, 10 μM Peptide Substrate; read-out: SYK Activities: Ki
T1 construct: purchased Invitrogen, Carlsbad
Method in brief: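 Continuous SOX-fluorescence (Omnia) readout of Tyr 7 peptide (10 μM) phosphorylation with 1 mM ATP and 0.2 mM DTT at 30° C, started by SYK addition. Fluorescence (λex 360/λem 485 nm) was read every 30 s for 30 min. IC50 from velocity vs concentration; apparent Ki via Cheng-Prusoff.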

LRRK2, sequence (Q5S007 970-2527 limits assumed): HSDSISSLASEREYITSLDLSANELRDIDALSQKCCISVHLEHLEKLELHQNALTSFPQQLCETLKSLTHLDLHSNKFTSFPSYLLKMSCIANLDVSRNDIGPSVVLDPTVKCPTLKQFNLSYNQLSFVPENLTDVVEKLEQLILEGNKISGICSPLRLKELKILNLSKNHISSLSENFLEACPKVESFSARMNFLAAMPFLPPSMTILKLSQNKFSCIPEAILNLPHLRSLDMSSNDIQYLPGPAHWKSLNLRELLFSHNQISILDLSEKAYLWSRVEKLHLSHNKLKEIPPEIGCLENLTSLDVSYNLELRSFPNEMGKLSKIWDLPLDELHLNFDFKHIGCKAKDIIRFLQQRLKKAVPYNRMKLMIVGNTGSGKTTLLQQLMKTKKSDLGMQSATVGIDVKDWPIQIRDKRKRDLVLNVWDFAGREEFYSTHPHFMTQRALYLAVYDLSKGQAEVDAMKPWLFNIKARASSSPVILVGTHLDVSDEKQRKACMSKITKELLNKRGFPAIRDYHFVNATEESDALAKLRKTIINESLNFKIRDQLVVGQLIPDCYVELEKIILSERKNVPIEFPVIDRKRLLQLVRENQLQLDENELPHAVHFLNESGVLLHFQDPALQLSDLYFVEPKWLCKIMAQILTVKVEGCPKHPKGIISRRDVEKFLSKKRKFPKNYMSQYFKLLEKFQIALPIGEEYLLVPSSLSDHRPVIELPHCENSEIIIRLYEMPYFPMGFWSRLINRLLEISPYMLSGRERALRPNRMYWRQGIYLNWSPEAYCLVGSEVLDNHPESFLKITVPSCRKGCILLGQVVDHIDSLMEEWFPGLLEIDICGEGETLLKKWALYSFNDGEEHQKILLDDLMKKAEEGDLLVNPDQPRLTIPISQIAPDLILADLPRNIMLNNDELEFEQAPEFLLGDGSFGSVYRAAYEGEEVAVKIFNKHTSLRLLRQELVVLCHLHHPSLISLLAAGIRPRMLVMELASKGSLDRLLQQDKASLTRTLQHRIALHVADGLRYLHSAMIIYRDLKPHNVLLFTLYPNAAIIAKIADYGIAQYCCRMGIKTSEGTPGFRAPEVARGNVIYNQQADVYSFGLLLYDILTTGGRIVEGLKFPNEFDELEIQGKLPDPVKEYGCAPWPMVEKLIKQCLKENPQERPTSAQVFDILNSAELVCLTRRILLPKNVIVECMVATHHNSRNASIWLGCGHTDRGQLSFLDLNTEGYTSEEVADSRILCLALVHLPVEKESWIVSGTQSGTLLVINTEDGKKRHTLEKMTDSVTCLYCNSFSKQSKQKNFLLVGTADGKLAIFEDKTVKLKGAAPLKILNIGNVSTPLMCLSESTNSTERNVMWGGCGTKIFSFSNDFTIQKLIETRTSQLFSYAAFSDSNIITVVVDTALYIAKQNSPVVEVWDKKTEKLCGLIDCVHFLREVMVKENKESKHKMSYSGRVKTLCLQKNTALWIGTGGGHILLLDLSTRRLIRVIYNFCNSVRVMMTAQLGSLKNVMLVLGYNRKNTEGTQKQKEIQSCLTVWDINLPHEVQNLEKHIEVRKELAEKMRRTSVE
MYLK, sequence (Q15746 whole entry): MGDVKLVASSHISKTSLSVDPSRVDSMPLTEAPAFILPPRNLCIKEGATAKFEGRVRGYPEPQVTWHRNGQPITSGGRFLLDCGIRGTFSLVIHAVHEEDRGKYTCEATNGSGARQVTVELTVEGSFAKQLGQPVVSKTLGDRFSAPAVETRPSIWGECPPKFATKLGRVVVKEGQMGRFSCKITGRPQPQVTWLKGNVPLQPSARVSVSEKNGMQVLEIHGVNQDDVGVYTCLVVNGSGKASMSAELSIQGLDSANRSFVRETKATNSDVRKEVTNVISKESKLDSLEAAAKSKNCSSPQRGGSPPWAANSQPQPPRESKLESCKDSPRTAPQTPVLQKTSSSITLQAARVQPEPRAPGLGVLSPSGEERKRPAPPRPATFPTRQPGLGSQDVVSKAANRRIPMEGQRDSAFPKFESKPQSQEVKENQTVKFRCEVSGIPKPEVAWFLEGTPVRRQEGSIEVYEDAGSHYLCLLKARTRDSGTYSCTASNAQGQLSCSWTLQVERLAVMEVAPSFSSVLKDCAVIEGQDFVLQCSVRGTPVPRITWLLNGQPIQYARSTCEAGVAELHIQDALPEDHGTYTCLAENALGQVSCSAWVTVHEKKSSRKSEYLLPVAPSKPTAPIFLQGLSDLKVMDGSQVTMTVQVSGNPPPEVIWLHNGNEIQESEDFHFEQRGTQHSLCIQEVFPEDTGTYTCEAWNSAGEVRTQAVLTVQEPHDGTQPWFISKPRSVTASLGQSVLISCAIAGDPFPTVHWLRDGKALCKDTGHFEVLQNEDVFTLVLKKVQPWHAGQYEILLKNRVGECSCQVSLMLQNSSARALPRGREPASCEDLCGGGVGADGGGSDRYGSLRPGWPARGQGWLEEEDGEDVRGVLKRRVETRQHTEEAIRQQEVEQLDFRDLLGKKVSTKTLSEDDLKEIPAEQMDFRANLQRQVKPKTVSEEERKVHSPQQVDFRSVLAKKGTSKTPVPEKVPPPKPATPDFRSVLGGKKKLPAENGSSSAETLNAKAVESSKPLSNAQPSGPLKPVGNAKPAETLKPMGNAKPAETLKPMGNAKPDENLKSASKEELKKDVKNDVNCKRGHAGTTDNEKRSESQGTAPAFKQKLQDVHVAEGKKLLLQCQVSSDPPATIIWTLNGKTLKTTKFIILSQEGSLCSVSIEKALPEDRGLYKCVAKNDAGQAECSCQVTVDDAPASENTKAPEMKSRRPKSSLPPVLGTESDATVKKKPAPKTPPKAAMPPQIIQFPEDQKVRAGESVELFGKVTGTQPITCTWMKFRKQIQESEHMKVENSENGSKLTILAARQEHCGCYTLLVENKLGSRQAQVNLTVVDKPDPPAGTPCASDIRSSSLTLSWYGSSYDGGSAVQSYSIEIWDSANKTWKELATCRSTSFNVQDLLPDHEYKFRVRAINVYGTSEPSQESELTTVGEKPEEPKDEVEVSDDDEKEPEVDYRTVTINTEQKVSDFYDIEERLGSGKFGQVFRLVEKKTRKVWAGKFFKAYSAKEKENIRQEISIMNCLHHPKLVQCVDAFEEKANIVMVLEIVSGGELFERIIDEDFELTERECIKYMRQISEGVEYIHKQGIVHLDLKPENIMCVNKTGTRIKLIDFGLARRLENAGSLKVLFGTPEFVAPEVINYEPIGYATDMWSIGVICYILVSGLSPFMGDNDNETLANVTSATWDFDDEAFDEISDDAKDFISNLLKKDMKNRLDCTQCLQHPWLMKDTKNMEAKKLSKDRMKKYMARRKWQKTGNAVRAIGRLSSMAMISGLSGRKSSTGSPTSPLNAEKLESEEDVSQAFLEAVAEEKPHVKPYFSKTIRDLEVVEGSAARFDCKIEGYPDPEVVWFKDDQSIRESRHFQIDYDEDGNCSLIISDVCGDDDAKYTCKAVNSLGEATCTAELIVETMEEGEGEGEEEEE

IC50 (LRRK2)	IC50 (MYLK)	Ki (SYK kinase)	Compound
10 to 100 nM	< 5000 nM	10 to 100 nM	COc1cccc2nc(Nc3ccc4c(c3)NC(=O)CC4)c3[nH]ncc3c12 [Example #339, 7-((9-methoxy-3H-pyrazolo[3,4-c]quinolin-4-yl)amino)-3,4-dihydroquinolin-2(1H)-one]
10 to 100 nM	< 5000 nM	10 to 100 nM	COc1cccc2nc(Nc3ccc(N4CCN(C(C)=O)CC4)cc3)c3[nH]ncc3c12 [Example #340, 1-(4-(4-((9-methoxy-3H-pyrazolo[3,4-c]quinolin-4-yl)amino)phenyl)piperazin-1-yl)ethan-1-one]
100 to 1000 nM	< 5000 nM	100 to 1000 nM	COc1ccc2nc(Nc3cccc([S+](C)[O-])c3)c3n[nH]cc3c2c1 (stereo not drawn) [Example #346, 8-methoxy-N-(3-(methylsulfinyl)phenyl)-2H-pyrazolo[3,4-c]quinolin-4-amine]
10 to 100 nM	< 5000 nM	10 to 100 nM	CNS(=O)(=O)c1cccc(Nc2nc3ccc(OC)cc3c3c[nH]nc23)c1 [Example #348, 3-((8-methoxy-2H-pyrazolo[3,4-c]quinolin-4-yl)amino)-N-methylbenzenesulfonamide]
10 to 100 nM	< 5000 nM	10 to 100 nM	COc1cccc2nc(Nc3ccc(CN(C)C)cc3)c3[nH]ncc3c12 [Example #353, N-(4-((dimethylamino)methyl)phenyl)-9-methoxy-3H-pyrazolo[3,4-c]quinolin-4-amine]
